# According to patent US5863899A (priority 1994, dated 1999):
# Read-outs that look alike come from different tables or passages of the source. Square brackets hold non-standard residues; d marks the D form. Peptide text beside a SMILES is read from it. * marks the point of attachment. X13 = COc1ccc2c3c1O[C@H]1C(NC(=O)CNC(=O)CCSC4CC(=O)N(CCCCCCN5C(=O)CC(*)C5=O)C4=O)CC[C@@]4(O)[C@@H](C2)N(C)CC[C@]314; X9 = COc1ccc2c3c1O[C@H]1C(NCCSC4CC(=O)N(CCCCCCN5C(=O)CC(*)C5=O)C4=O)CC[C@@]4(O)[C@@H](C2)N(C)CC[C@]314; X1 = CN1CC[C@]23c4c5ccc(O)c4O[C@H]2C(NCCSC2CC(=O)N(CCCCCCN4C(=O)CC(*)C4=O)C2=O)CC[C@@]3(O)[C@H]1C5; X4 = CC(C)(C)c1ccc(C(C)(C)C(=O)Oc2ccc(S(=O)(=O)CCCC(=O)OCCCCCCN3C(=O)CC(*)C3=O)cc2)cc1; X7 = COc1ccc2c(c1)c(CC(=O)OCCCCCCN1C(=O)CC(*)C1=O)c(C)n2C(=O)c1ccc(Cl)cc1; Oic = O=C(O)[C@@H]1C[C@@H]2CCCC[C@@H]2N1; Hyp = O=C(O)[C@@H]1C[C@@H](O)CN1; dTic = O=C(O)[C@H]1Cc2ccccc2CN1; 2Thi = N[C@@H](Cc1cccs1)C(=O)O; X20 = O=C1CC(*)C(=O)N1CCCCCCO
# Experiments:
# BK2-receptor [1] = target: T1, BK2-receptor (Rattus norvegicus, UniProt P25023); assay: cell-based
# T1 sequence (P25023 1-396): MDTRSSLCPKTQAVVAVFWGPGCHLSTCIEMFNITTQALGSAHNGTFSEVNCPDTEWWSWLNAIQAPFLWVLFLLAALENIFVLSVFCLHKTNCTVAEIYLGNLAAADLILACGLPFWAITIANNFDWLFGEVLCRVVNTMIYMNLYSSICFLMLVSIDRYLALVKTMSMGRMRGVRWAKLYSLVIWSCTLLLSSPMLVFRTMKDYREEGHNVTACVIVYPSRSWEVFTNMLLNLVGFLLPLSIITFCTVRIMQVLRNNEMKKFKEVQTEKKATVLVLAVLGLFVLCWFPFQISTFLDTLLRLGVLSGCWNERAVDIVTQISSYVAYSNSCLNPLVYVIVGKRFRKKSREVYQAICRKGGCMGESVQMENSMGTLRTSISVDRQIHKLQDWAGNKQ
# [2] = test system: rat lung parenchymal strips (cyclooxygenase dependent contraction); assay: rat lung parenchymal strips challenged with arachidonic acid; type: cell-based; conditions: contraction in response to exogenously applied arachidonic acid
# Excerpt: As mentioned previously, for the COI to work it may need to be dissociated from the BKAn so as to allow for its intracellular penetration. Therefore, in order to evaluate the functional activity of a BKAn/COI heterodimer, CP-0460 was exposed to rat lung parenchymal strips which were then challenged with arachidonic acid. This tissue is known to contain both non-specific esterase activity as well as to convert arachidonic acid to thromboxane (via a cyclooxygenase dependent pathway) which is then ultimately responsible for the smooth muscle contraction observed in this assay.
# BK2-receptor [3] = target: T1, BK2-receptor
# [4] = test system: mice injected in the hind limb foot pad with formalin; assay: mouse formalin test (model of inflammatory and neurogenic pain); type: in vivo; conditions: for narcotic / behavioral effects in the formalin test: oxymorphone: highest doses 0.9 and 3.0 umoles/kg, CP-0494: over several hours
# Description: In order to test the activity of these compounds in vivo, a model of inflammatory and neurogenic pain was used. This model measures the behavioral responses of mice injected in the hind limb foot pad with 50 ul of formalin. Control mice (open circles) show a characteristic bi-phasic response to the injected formalin wherein there is a short lasting initial response followed by a quiescent period which is then followed by a sustained period of hind limb licking. The licking behavior is interpreted to mean that the limb is irritated and painful. The greater the time spent licking, the more painful the stimulus.
# mu-opiate receptor = mu-opiate receptor (Cavia porcellus, UniProt A0ACM8Q262); assay: electrically stimulated guinea pig ileum assay; type: cell-based; conditions: in vitro mu-opiate receptor agonist activity
# [5] = target: T2, purified human neutrophil elastase (HNE) (Homo sapiens, UniProt P08246); assay: neutrophil elastase inhibition with chromogenic substrate MOS-AAPV-pNA; type: biochemical
# T2 sequence (P08246 30-247 limits assumed): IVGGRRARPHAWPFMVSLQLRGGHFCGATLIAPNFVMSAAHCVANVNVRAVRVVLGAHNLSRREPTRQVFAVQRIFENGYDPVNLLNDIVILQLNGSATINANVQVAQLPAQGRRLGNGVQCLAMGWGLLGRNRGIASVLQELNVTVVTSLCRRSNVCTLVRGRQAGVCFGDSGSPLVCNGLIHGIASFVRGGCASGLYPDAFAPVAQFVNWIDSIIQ
# in vitro = assay: in vitro
# Description: Unfortunately, there are no established animal models that can be employed to assess combined BKAn and NEI activity in vivo. Therefore, in order to assess the potential for in vivo hydrolysis of the intact heterodimer, an in vitro "surrogate" system was employed wherein the parent heterodimer (CP-0502) was incubated with human plasma and the resulting metabolites analyzed by reverse phase HPLC.
# CP-0502 was added to freshly obtained normal human plasma and allowed to incubate at 37° C. for varying amounts of time. At the designated time the samples were treated with acidified (0.1N HCl) acetonitrile in order to precipitate the plasma proteins. Aliquots (75 ul) of the supernatents were then analyzed on a Vydac C-18 reverse phase HPLC column using 24% to 80% acetonitrile gradient in 0.1% TFA. The eluent was monitored at 214 nm.
# [6] = freshly obtained normal human plasma; conditions: 37° C., up to 180 minutes
# [7] = Table II, MOS-AAPV-pNA 0.5 mM, pH 7.5, 25 C
# Chain of mu-opiate receptor (A0ACM8Q262 1-400): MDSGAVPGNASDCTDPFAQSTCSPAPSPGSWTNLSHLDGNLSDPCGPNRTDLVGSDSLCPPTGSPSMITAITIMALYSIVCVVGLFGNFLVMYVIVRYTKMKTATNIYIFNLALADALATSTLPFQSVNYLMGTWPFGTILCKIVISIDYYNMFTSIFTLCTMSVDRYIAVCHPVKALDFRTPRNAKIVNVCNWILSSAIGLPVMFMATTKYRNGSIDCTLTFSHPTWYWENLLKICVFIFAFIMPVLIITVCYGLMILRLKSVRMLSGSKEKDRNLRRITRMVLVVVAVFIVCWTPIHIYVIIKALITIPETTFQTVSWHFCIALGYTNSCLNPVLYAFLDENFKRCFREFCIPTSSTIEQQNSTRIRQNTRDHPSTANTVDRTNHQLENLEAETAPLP
compound,measurement,setting,value
COc1ccc2c3c1O[C@H]1C(NCCSC4CC(=O)N(CCCCCCN5C(=O)CC(SC[C@H](NC(=O)[C@H](Cc6ccccc6)NC(=O)CNC(=O)[C@@H]6C[C@@H](O)CN6C(=O)[C@@H]6CCCN6C(=O)[C@H](CCCNC(=N)N)NC(=O)[C@H](N)CCCNC(=N)N)C(=O)N[C@H](Cc6ccccc6)C(=O)N[C@@H](CC(C)C)C(=O)N[C@@H](CCCNC(=N)N)C(=O)O)C5=O)C4=O)CC[C@@]4(O)[C@@H](C2)N(C)CC[C@]314 (stereo partly shown) [CP-0477] (H-[dR]RP[Hyp]GFC(X9)[dF]LR-OH),Kb,BK2-receptor [1],12.6 nM
COc1ccc2c(c1)c(CC(=O)O)c(C)n2C(=O)c1ccc(Cl)cc1 [indomethacin],log dose ratio shift,[2],0.998+/-0.425
same,"pA2, standard rat uterus assay",BK2-receptor [3]; intact compound,no effect on this assay at any concentration
CC(C)C[C@H](NC(=O)[C@@H](Cc1ccccc1)NC(=O)[C@H](CSC1CC(=O)N(CCCCCCN2C(=O)CC(SCCNC3CC[C@@]4(O)[C@H]5Cc6ccc(O)c7c6[C@@]4(CCN5C)[C@H]3O7)C2=O)C1=O)NC(=O)[C@H](Cc1ccccc1)NC(=O)CNC(=O)[C@@H]1C[C@@H](O)CN1C(=O)[C@@H]1CCCN1C(=O)[C@H](CCCNC(=N)N)NC(=O)[C@H](N)CCCNC(=N)N)C(=O)N[C@@H](CCCNC(=N)N)C(=O)O (stereo partly shown) [CP-0494] (H-[dR]RP[Hyp]GFC(X1)[dF]LR-OH),narcotic / behavioral effects in the formalin test,[4],no observable narcotic effects
same,Kb,BK2-receptor [1],3.98 nM
"N=C(N)NCCC[C@@H](N)C(=O)N[C@@H](CCCNC(=N)N)C(=O)N1CCC[C@H]1C(=O)N1C[C@H](O)C[C@H]1C(=O)NCC(=O)N[C@@H](Cc1cccs1)C(=O)N[C@@H](CS)C(=O)N1Cc2ccccc2C[C@@H]1C(=O)N1[C@H](C(=O)N[C@@H](CCCNC(=N)N)C(=O)O)C[C@@H]2CCCC[C@@H]21 [CP-0347, D R-R-P-J-G-Thi-C-D Tic-Oic-R] (H-[dR]RP[Hyp]G[2Thi]C[dTic][Oic]R-OH)",Kb,BK2-receptor [1],0.316 nM
CN1CC[C@]23c4c5ccc(O)c4O[C@H]2C(=O)CC[C@@]3(O)[C@H]1C5 [oxymorphone],effect on licking behavior (both phases) in the formalin test,[4]; 50 ul formalin in hind limb foot pad,reduces both phases of the licking behavior
same,dose at which both phases of the pain response are blocked,[4]; mouse formalin test,0.9 µmol/kg
same,narcotic / behavioral effects in the formalin test,[4],significant behavioral obtundation resulting in catalepsy and frank respiratory depression
same,pA2 -Rat Uterus,"BK2-receptor [3]; Table I, BK2-receptor activity",inactive
COc1ccc2c3c1O[C@H]1C(=O)CC[C@@]4(O)[C@@H](C2)N(C)CC[C@]314 [oxycodone],activity in guinea pig ileum assay,mu-opiate receptor,neither oxycodone nor the heterodimers derived from oxycodone (CP-0477 and CP-0488) showed any activity
same,pA2 -Rat Uterus,"BK2-receptor [3]; Table I, BK2-receptor activity",inactive
"CC(C)(C)c1ccc(C(C)(C)C(=O)Oc2ccc(CCCC(=O)O)cc2)cc1 [CE-1218, 4-(3'-carboxy-propyl)phenyl 4-tert-butylphenylisobutyrate]",Ki,"[5]; Table II, MOS-AAPV-pNA 0.5 mM, pH 7.5, 25 C, read-out: Ki^ss (HNE)",10.5 nM
same,pA2 -Rat Uterus,BK2-receptor [3]; Table II,inactive
COc1ccc2c(c1)c(CC(=O)OCCCCCCN1C(=O)CC(SC[C@H](NC(=O)[C@H](Cc3ccccc3)NC(=O)CNC(=O)[C@@H]3C[C@@H](O)CN3C(=O)[C@@H]3CCCN3C(=O)[C@H](CCCNC(=N)N)NC(=O)[C@H](N)CCCNC(=N)N)C(=O)N[C@H](Cc3ccccc3)C(=O)N[C@@H](CC(C)C)C(=O)N[C@@H](CCCNC(=N)N)C(=O)O)C1=O)c(C)n2C(=O)c1ccc(Cl)cc1 (stereo partly shown) [CP-0460] (H-[dR]RP[Hyp]GFC(X7)[dF]LR-OH),Kb,BK2-receptor [1],~15.8 nM
COc1ccc2c3c1O[C@H]1C(NC(=O)CNC(=O)CCSC4CC(=O)N(CCCCCCN5C(=O)CC(SC[C@H](NC(=O)[C@H](Cc6ccccc6)NC(=O)CNC(=O)[C@@H]6C[C@@H](O)CN6C(=O)[C@@H]6CCCN6C(=O)[C@H](CCCNC(=N)N)NC(=O)[C@H](N)CCCNC(=N)N)C(=O)N[C@H](Cc6ccccc6)C(=O)N[C@@H](CC(C)C)C(=O)N[C@@H](CCCNC(=N)N)C(=O)O)C5=O)C4=O)CC[C@@]4(O)[C@@H](C2)N(C)CC[C@]314 (stereo partly shown) [CP-0488] (H-[dR]RP[Hyp]GFC(X13)[dF]LR-OH),Kb,BK2-receptor [1],6.31 nM
CC(C)C[C@H](NC(=O)[C@@H](Cc1ccccc1)NC(=O)[C@H](CSC1CC(=O)N(CCCCCCOC(=O)CCCS(=O)(=O)c2ccc(OC(=O)C(C)(C)c3ccc(C(C)(C)C)cc3)cc2)C1=O)NC(=O)[C@H](Cc1ccccc1)NC(=O)CNC(=O)[C@@H]1C[C@@H](O)CN1C(=O)[C@@H]1CCCN1C(=O)[C@H](CCCNC(=N)N)NC(=O)[C@H](N)CCCNC(=N)N)C(=O)N[C@@H](CCCNC(=N)N)C(=O)O (stereo partly shown) [CP-0502] (H-[dR]RP[Hyp]GFC(X4)[dF]LR-OH),Kb,BK2-receptor [1],31.6 nM
same,half-life,"in vitro; human, plasma (freshly obtained normal human plasma)",~1.88 h
same,hydrolysis in human plasma (HPLC),"in vitro; normal human plasma, 37° C., to CP-0487 and its des-Arg9 derivative",readily hydrolyzed
same,Ki,[5],6.6 nM
"CC(C)C[C@H](NC(=O)[C@@H](Cc1ccccc1)NC(=O)[C@H](CS)NC(=O)[C@H](Cc1ccccc1)NC(=O)CNC(=O)[C@@H]1C[C@@H](O)CN1C(=O)[C@@H]1CCCN1C(=O)[C@H](CCCNC(=N)N)NC(=O)[C@H](N)CCCNC(=N)N)C(=O)N[C@@H](CCCNC(=N)N)C(=O)O [CP-0126, D R-R-P-J-G-F-C-D F-L-R] (HELM PEPTIDE1{[dR].R.P.[Hyp].G.F.C.[dF].L.R}$$$$V2.0)",Ki^ss (HNE),[5]; [7],inactive
CC(C)C[C@H](NC(=O)[C@@H](Cc1ccccc1)NC(=O)[C@H](CSC1CC(=O)N(CCCCCCO)C1=O)NC(=O)[C@H](Cc1ccccc1)NC(=O)CNC(=O)[C@@H]1C[C@@H](O)CN1C(=O)[C@@H]1CCCN1C(=O)[C@H](CCCNC(=N)N)NC(=O)[C@H](N)CCCNC(=N)N)C(=O)N[C@@H](CCCNC(=N)N)C(=O)O (stereo partly shown) [CP-0487] (H-[dR]RP[Hyp]GFC(X20)[dF]LR-OH),Kb,BK2-receptor [1],3.98 nM
same,Ki^ss (HNE),[5]; [7],inactive
D R-R-P-J-G-F-C-D F-L-R,cleaved bond,[6],Leu8-Arg9
same,fragment found,[6],CP-0487
